The record followed here is US20080051646A1, “Probe for cellular oxygen” (priority 2006, published 2008).

Where no end group is shown, it is not given here. PtCP = not defined here

Common to all, as to assay type: cell-based
One assay relates to A549 cells. As to the kind of experiment: Intracellular oxygen imaging of loaded cells treated with effector compounds. The procedure:
(§1) Loading of the cells with the PtCPK-BSA and PdCPK-BSA based probes (as described in Example 2) was carried out in the same way as described in Example 3 for the PtCP-BSA probes (i.e. 5 h in serum-free medium for the Escort or 24 h in serum-rich medium for Endoporter). A549 and HeLa cells loaded with PtCPK-BSA and PdCPK-BSA probes were then washed and analyzed by fluorescence microscopy. Imaging experiments of cells loaded with the probes were carried out on an Olympus IX51 inverted fluorescence microscope equipped with 75 W Xenon Arc Lamp (Cairn), an Optoscan Monochromator (Cairn) and an Orca-ER CCD camera (Hamamatsu). Live cell imaging was carried out using an Olympus UplanFl 1.3 NA 100× oil-immersion objective. The images were analysed using Kinetic Imaging AQM Advanced software (Version 6). The PtCPK and PdCPK probes were imaged under excitation at wavelengths of 395 nm and 400 nm respectively collecting the phosphorescence emission using a 600 nm cut-off filter.
Adherent A549, HeLa and SH-SY5Y cells were grown under normal conditions. Cells were loaded with probes based on PtCPK-BSA and PdCPK-BSA and Escort III (described in Example 2), and treated with various effector compounds with known mechanisms of action on cell metabolism and cellular response to the effector compounds was observed under a fluorescent microscope.
The effect of Ca-channel agonist ryanodine (20 nM) on SH-SY5Y cells, with up-regulation of cell metabolism by inducing a release of Ca2+ from intracellular stores, is shown in FIG. 4. […] An approximately 40% drop in PtCPK phosphorescence was observed as the base rate of respiration was inhibited resulting in higher levels of intracellular oxygen emanating from O2 influx from the extracellular medium.
The specificity of the CMC response was confirmed by incubating A549 cells with an equimolar concentration of the ryanodine channel blocker procaine followed by CMC treatment. In this case, phosphorescence intensity increased by less than 10% after the introduction of CMC.

A further assay deals with Jurkat T cells. Description: Lifetime of cell-surface-bound WGA-PtCP probe on Victor2 time resolved reader. The conditions noted are these: Jurkat cells loaded with WGA-PtCP probe; 1 μM; basal 25 μs. As for the experimental part: Wheat germ agglutinin (WGA) at 1 mg/ml concentration in 0.1 M Na carbonate, pH 8.6 was labelled with the PtCP-NCS dye using a 20-molar excess of dye. After two hours of incubation at room temperature, the resulting conjugate was separated from the free dye as described in example 1 above. Jurkat T cells and human B cells were incubated with WGA-PtCP probe at 1 μM concentration for 30 min at 37° C. in RPMI medium, to achieve binding of the probe to glycoproteins on cell surface. After washing of loaded cells with medium, local oxygen concentration (at cell surface and within the cell) was assessed. and responses to effectors of respiration such as 1 μM FCCP were measured. Lifetimes of the cells loaded with WGA-PtCP probe was measured on a time resolved fluorescent reader Victor^2, using excitation at 340 nm excitation and 642 nm emission filters, and pairwise intensity readings at delay times 30 and 70 μs (at gate time 100 μs). Basal lifetime of resting Jurkat cells was recorded as 25 μs, moving to 32 μs upon the addition of FCCP (uncoupler of respiration). Under the same conditions, using the PtCP-BSA conjugate which had no ability to bind to the cells and remained in extracellular medium, intracellular oxygen gradients and responses to effectors were undetectable.

The next assay has as its system Jurkat T-cells. Description: Phosphorescence lifetime of PtCP-BSA probe in Jurkat cells on a fluorescent lifetime spectrometer. The conditions noted are these: for change in intracellular probe phosphorescence lifetime after effector: Jurkat cells loaded with PtCP-BSA-Escort III probe, 1 μM, three minute intervals.
The subject of a further assay is HeLa cells. Description: Intracellular oxygen imaging of loaded cells treated with valinomycin. The note with it: HeLa cells loaded with PtCPK-BSA or PdCPK-BSA; 1 μM. As for the experimental part: as §1
Adherent A549, HeLa and SH-SY5Y cells were grown under normal conditions. Cells were loaded with probes based on PtCPK-BSA and PdCPK-BSA and Escort III (described in Example 2), and treated with various effector compounds with known mechanisms of action on cell metabolism and cellular response to the effector compounds was observed under a fluorescent microscope. […]

In the next assay the test system is PC12 cells. As to the kind of experiment: Mitochondria-targeted probes in loaded cells on the Victor reader. The procedure: The PtCP-BSA conjugate, synthesized as described in Example 1 was additionally labelled with a synthetic oligopeptide containing the following sequence: […]. The peptide comprises a mitochondria targeting sequence (according to http://psort.ims.u-tokyo.ac.jp), a terminal cysteine group was used for the conjugation. Labelling with the peptide was achieved by means of a heterobifunctional reagent—succinimide ester of maleimidopropionic acid. The PtCP-BSA conjugate was incubated with 10-molar excess of the reagent in 0.1 M phosphate buffer, pH 7.8 for 4 hours at room temperature, then separated on a PD-10 column in the same buffer. The peak of activated PtCP-BSA was collected, mixed with 10-molar excess of the peptide, incubated for further 6 hours. Finally, the PtCP-BSA-peptide conjugate was separated on a PD-10 column.
Alternatively, the peptide was conjugated directly to PtCP. The monofunctional maleimide derivative of PtCP was used, which reacts spontaneously with —SH groups on the peptide (terminal cysteins) to form stable covalent linkage. […]
Probes incorporating the PtCP-BSA-peptide and PtCP-peptide conjugates (successful labelling was confirmed by MALDI mass spectrometry) were formulated with Endoporter agent and used for cell loading as described in Examples 3 to 8. PC12 cells loaded with these probes produced high signals on the Victor reader.

Description for Jurkat T-cells: Jurkat T-cells were grown in RPMI medium supplemented with 10% FBS, 2 mM L-glutamine, 100 U/ml penicillin and 100 μg/ml streptomycin.
For loading, the PtCP-BSA based probe comprising PtCP-BSA conjugate formulated with Escort III (described in Example 1) was used. Probe solution was pre-warmed by incubating at 37° C for 15 min followed by addition of 100 μl of the probe solution to the cell culture dish containing 800 μl of serum free medium. The cells and probe solution were incubated for 5 hours in a 5% CO2 incubator at 37° C., cells were then washed with 1 ml of serum free medium three times.
Loading of the cells loaded with the PtCP-based probe(s) was initially assessed by measurement on a fluorescent lifetime spectrometer Cary Eclipse (Varian), both in the intracellular environment (i.e. after loading and washing of the cells) and in the extracellular medium (at the start of loading, no washing). […] The inhibitor blocks oxygen consumption and adjusts intracellular oxygen levels to air-saturated levels.
Jurkat T-cell lymphoma cells were grown under normal conditions and loaded with the PtCP-BSA-Escort III based probe (as described in Example 1) using the method described in Example 3. Following washing the basal level of intracellular oxygen was assessed by measuring the phosphorescence lifetime of the PtCP probe using a Cary Eclipse spectrofluorometer and analyzing phosphorescence decays using Origin™ software (single-exponential fits). Phosphorescence lifetimes of the intracellular probe in loaded cells were measured at three minute intervals following the addition of 1 μM valinomycin.

With `Cc1cc(O)ccc1Cl` [CMC, 4-chloro-meta-cresol], the “increase of phosphorescence intensity” value with A549 cells (A549 cells pre-incubated with equimolar procaine, then 500 μM CMC) was “less than 10%”. Also, the “effect on the phosphorescence” value with A549 cells (respiring A549 cells loaded with PtCPK-BSA, 500 μM) is recorded as “pronounced effect”.

Consider `N#CC(C#N)=NNc1ccc(OC(F)(F)F)cc1` [FCCP], for which the “lifetime upon addition of uncoupler” value with Jurkat T cells is on record as 32 μs.

`CC(C)[C@@H]1NC(=O)[C@H](C)OC(=O)[C@@H](C(C)C)NC(=O)[C@@H](C(C)C)OC(=O)[C@H](C(C)C)NC(=O)[C@H](C)OC(=O)[C@@H](C(C)C)NC(=O)[C@@H](C(C)C)OC(=O)[C@H](C(C)C)NC(=O)[C@H](C)OC(=O)[C@@H](C(C)C)NC(=O)[C@@H](C(C)C)OC1=O` [valinomycin]: in the assay on Jurkat T-cells, the “change in intracellular probe phosphorescence lifetime after effector” value was “increase in probe lifetime was significantly faster than in a control sample”. The “phosphorescence response to effector” value in the assay on A549 cells (A549 cells loaded with PtCPK-BSA or PdCPK-BSA, 1 μM) was “rapid and cell specific”; in the assay with HeLa cells it was “rapid and cell specific”.

As for “PtCP-peptide: PtCP-maleimide conjugated directly to peptide VLTPLLLRGLTGSARRLPVPRAKAC (VLTPLLLRGLTGSARRLPVPRAKAC(PtCP); reading uncertain)”, the “signals of loaded cells on the Victor reader” value with PC12 cells (formulated with Endoporter) is “high signals”. For the same compound, the “phosphorescence lifetimes of resting loaded cells compared with PtCP-BSA probe” value with PC12 cells (resting) is reported as “higher”.

For antimycin A, the “probe lifetime after addition of inhibitor” value in the assay with Jurkat T-cells (Jurkat cells loaded with PtCP-BSA probe, basal 31 μs, lifetime decreases and levels off) is given as around 25 μs. In the assay on Jurkat T-cells, the “change in intracellular probe phosphorescence lifetime after effector” value is “slight drop”. Further, the “drop in PtCPK phosphorescence” value in the assay on A549 cells (A549 cells loaded with PtCPK-BSA/Escort III, 2 μM) was “approximately 40%”.

With ryanodine, the “response of loaded cells, lower concentrations” value in the assay with A549 cells (A549 cells loaded with PtCPK, 2 nM and 20 nM) was “increased phosphorescence”. For the same compound, in the assay on A549 cells (A549 cells loaded with PtCPK, 200 nM and 2 μM), the “response of loaded cells, higher concentrations” value is listed as “little oxygen uptake”.
